Experimental data as given in patent US11730759B1, “Sulfasalazine-loaded zinc oxide nanoparticles for the treatment of ulcerative colitis” (priority 2023, dated 2023).

System: ulcerative colitis (UC) rats
Type: in vivo
Conditions: sulfasalazine 100 mg/kg P.O., loaded ZnONPs 100 mg/kg P.O. containing 12.2 mg sulfasalazine/kg
Protocol: Forty male albino rats were randomly divided into four groups (n=10 rats), with all groups were treated for 7 days, as follows:
Group 1: Rats received saline daily for 21 consecutive days by rectal catheter and served as the normal control group (negative control).
Group 2: The disease group received 1 ml acetic acid 3% for three days and served as the ulcerative colitis (UC) control group (positive control).
Group 3: In the standard group, rats received free sulfasalazine (100 mg/kg; P.O. i.e., about 20 mg/rat 200 g) after induction of UC by acetic acid 3% as in group 2.
Group 4: The treatment group, where UC rats received the dose of ZnONPs loaded sulfasalazine (100 mg/kg; P.O. of the ZnONPs) containing 12.2 mg sulfasalazine/kg; P.O.
Markers estimated: • Macroscopic examination of colonic mucosa. • Inflammatory mediators such as tumor necrosis factor-α (TNF-α), interleukin 1beta (IL 1B), malondialdehyde (MBA), reduced glutathione (GSH), superoxide dismutase (SOD), caspase-1, and cyclooxygenase-2 (COX2). • Inflammatory mediators are estimated by ELIZA.

Structure (SMILES): O=C(O)c1cc(/N=N/c2ccc(S(=O)(=O)Nc3ccccn3)cc2)ccc1O [sulfasalazine]
- overall effect on ulcerative colitis (inflammatory mediators, healing) relative to other treatments: lower than that observed for Group 4
